For one assay, the target named is CDK4/cyclin D1 complexes. Also on record: method as in PMID 24919854. Particulars: cell-free; read-out: Ki^ATP CDK4/cyclin D1; cited from earlier work.
The test system of assay [1] is MCF7 cells. Nature of the assay: SA-β-gal immunofluorescence (senescence), MCF7. It is filed as cell-based, human. Here is the method: After treatment, cells were fixed, washed with PBS, permeabilized and β-gal was detected using anti-β-galactosidase antibody; for multiplexed assays, TUNEL staining was carried out using Roche TUNEL reagents as indicated above. Nuclei were also stained with PI for total cell counting. Plates were read in an Acumen Explorer Ex3 (TTP Labtech) and raw data were analyzed with Cellista software. Outputs were expressed as percentages of each identified subpopulation 1) positive β-gal, and 2) total cell number. The percentages of β-gal positive cells, TUNEL positive cells, and cell numbers were plotted in Microsoft Excel.

The subject of a further assay is pRb at S807/811. Nature of the assay: Immunoblotting of phospho-Rb in ZR-75-1, T-47D and MCF7 cells. Format: cell-based, human. The note with it: MCF7, T-47D, ZR-75-1 cells; 24 hours; 0.027 µM to 20 µM. Here is the method: Protein lysates were prepared from the cells and analyzed for the expression of various biomarkers by immunoblotting. The biomarkers included phosphor-Rb at serines 807/811,phosphorylation of serine 2 on the C-terminal repeat domain on RNA polymerase II (pCTD) and MCL1. Images of Western blots were cropped to denote the relevant band(s) for clarity. […] Ki-67 positive events were obtained by gating versus background signal.
A general note: A western blot detects proteins with antibodies after separation by electrophoresis.

The subject of assay [2] is MCF7 cells. The assay can be described thus: PI high content imaging of G1 arrest and cell proliferation, MCF7. It is filed as cell-based. The note with it: Homo sapiens. Here is the method:
Relative IC50/EC50 values were determined by curve fitting to a four parameter logistic equation: Y = bottom + ((top-bottom)/ (1+exp(HillSlope*(X – LnIC50)), where X is the natural log of dose/concentration, Y is response, decreasing as X increases, top and bottom are plateaus in the same units as Y, lnIC50 is the natural log of potency, in the same log units as X, and HillSlope measures the steepness of the curve. Data were plotted using GraphPad Prism. […]
Preclinical characterization of abemaciclib in hormone receptor […]
METHODS High content imaging cell-based assays for monitoring phosphorylation of Rb (ser780), G1 arrest and […]
ATP at 20°C by a secondary goat anti-mouse IgG-Alexa Fluor 488 in a 96-well plate filtration assay format. […] Plates were read in an kinase buffer containing 68 mM Hepes at pH 7.5, 6.67 mM Acumen Explorer eX3 (TTP Labtech). […] 10µL of CDK6/cyclin corresponding to 500-530 nm and the percentage of D3 enzyme complex (Millipore 14-519, #D13BP009NA) cells with pRb signal relative to the total PI stained (1 nM final concentration in the assay) was added onto subpopulation was calculated by the instrument’s software a mix of substrate and test compound. […]
(EDTA) was used to determine the level of background evaluated by measuring PI signal using high content 33P in the absence of enzyme activity. […]

Where two headings read alike, the source gives them in different places.

With `CCN1CCN(Cc2ccc(Nc3ncc(F)c(-c4cc(F)c5nc(C)n(C(C)C)c5c4)n3)nc2)CC1` [abemaciclib, Abemaciclib], the Ki at CDK4/cyclin D1 complexes is 0.6 nM. In addition, the “% β-gal Positive MCF7 Cells” value in the assay on MCF7 cells [1] (0.5 µM, 4 days) was determined as 16.15 ± 1.48%; in the assay with MCF7 cells [1] (0.5 µM, 7 days), 16.25 ± 0.35%; with MCF7 cells [1] (0.5 µM, 10 days), 19.7 ± 1.83%; with MCF7 cells [1] (2 µM, 4 days), 42.45 ± 5.86%; in the assay with MCF7 cells [1] (2 µM, 7 days), 55.4 ± 18.8%; with MCF7 cells [1] (2 µM, 10 days) it was 30.85 ± 3.46%. The “levels of phosphorylated Rb (pRb) at S807/811” value in the assay with pRb at S807/811 is recorded as “decrease in levels of phosphorylated Rb”. In addition, the IC50 in the assay on MCF7 cells [2] (n = 2, read-out: IC50 2n (G1 arrest)) is 54 ± 16 nM; with MCF7 cells [2] (n = 2, read-out: IC50 Cell number), 369 ± 370 nM.

What is called IC50 is the concentration at which inhibition is half-maximal.

(Values after paper PMC5642494 (Oncotarget, 2017).)
